Measured values as given in patent publication US9828360B2 (Array BioPharma Inc., priority 2012, dated 2017).

What was measured:
[1] = target: T1, IGF-1R (Homo sapiens, UniProt P08069); assay: KinaseProfiler off-target kinase profiling; format: biochemical; details: 10 μM, ATP near Km
T1 construct: purchased Millipore, Inc. (KinaseProfiler service)
Procedure, shortened: (§1)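 Duplicate measurements were made with 10 μM test compound and ATP close to the kinase-specific Km. Percent-of-control figures are the mean of those two measurements.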

[2] = target: T2, EphA2 (Homo sapiens, UniProt P29317); assay: KinaseProfiler off-target kinase profiling; format: biochemical; details: 10 μM, ATP near Km
T2 construct: purchased Millipore, Inc. (KinaseProfiler service)
Procedure, shortened: as §1

[3] = target: T3, p38delta (Homo sapiens, UniProt O15264); assay: KinaseProfiler off-target kinase profiling; format: biochemical; details: 10 μM, ATP near Km
T3 construct: purchased Millipore, Inc. (KinaseProfiler service)
Procedure, shortened: as §1

[4] = target: T4, DMPK (Homo sapiens, UniProt Q09013); assay: KinaseProfiler off-target kinase profiling; format: biochemical; details: 10 μM, ATP near Km
T4 construct: purchased Millipore, Inc. (KinaseProfiler service)
Procedure, shortened: as §1

[5] = target: T5, CDK6/cyclinD3 (Homo sapiens, UniProt Q00534); assay: KinaseProfiler off-target kinase profiling; format: biochemical; details: 10 μM, ATP near Km
T5 construct: purchased Millipore, Inc. (KinaseProfiler service)
Procedure, shortened: as §1

[6] = target: T6, CK1gamma2 (Homo sapiens, UniProt P78368); assay: KinaseProfiler off-target kinase profiling; format: biochemical; details: 10 μM, ATP near Km
T6 construct: purchased Millipore, Inc. (KinaseProfiler service)
Procedure, shortened: as §1

[7] = target: T7, MARK2 (Homo sapiens, UniProt Q7KZI7); assay: KinaseProfiler off-target kinase profiling; format: biochemical; details: 10 μM, ATP near Km
T7 construct: purchased Millipore, Inc. (KinaseProfiler service)
Procedure, shortened: as §1

[8] = target: T8, PKD2 (Homo sapiens, UniProt Q9BZL6); assay: KinaseProfiler off-target kinase profiling; format: biochemical; details: 10 μM, ATP near Km
T8 construct: purchased Millipore, Inc. (KinaseProfiler service)
T8 sequence (Q9BZL6 whole entry): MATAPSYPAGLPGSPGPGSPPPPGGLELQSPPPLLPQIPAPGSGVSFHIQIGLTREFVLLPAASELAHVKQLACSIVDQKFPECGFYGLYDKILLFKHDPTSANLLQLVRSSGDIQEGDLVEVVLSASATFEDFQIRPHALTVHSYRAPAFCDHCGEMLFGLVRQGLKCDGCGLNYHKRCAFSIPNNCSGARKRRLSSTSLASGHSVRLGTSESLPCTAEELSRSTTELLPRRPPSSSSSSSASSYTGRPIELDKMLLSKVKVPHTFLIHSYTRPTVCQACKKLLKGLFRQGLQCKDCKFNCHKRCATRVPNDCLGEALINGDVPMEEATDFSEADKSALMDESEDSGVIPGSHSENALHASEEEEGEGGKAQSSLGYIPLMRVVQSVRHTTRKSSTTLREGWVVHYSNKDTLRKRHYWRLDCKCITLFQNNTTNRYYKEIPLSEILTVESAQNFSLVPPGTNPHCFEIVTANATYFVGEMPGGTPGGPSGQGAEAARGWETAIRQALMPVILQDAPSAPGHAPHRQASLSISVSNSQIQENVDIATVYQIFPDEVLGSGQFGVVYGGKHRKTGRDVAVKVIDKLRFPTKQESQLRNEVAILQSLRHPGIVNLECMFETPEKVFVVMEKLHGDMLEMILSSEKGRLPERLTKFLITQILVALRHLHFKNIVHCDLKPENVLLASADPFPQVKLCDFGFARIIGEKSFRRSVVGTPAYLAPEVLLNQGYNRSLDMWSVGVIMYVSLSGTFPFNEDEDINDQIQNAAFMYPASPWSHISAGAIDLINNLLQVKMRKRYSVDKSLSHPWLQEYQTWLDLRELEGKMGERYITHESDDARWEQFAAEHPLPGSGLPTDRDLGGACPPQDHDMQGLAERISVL
Procedure, shortened: as §1

[9] = target: T9, Yes (Homo sapiens, UniProt P07947); assay: KinaseProfiler off-target kinase profiling; format: biochemical; details: 10 μM, ATP near Km
T9 construct: purchased Millipore, Inc. (KinaseProfiler service)
Procedure, shortened: as §1

[10] = target: T10, SGK3 (Homo sapiens, UniProt Q96BR1); assay: KinaseProfiler off-target kinase profiling; format: biochemical; details: 10 μM, ATP near Km
T10 construct: purchased Millipore, Inc. (KinaseProfiler service)
Procedure, shortened: as §1

[11] = target: T11, AMPK (A1/B1/G1) (Homo sapiens, UniProt Q13131); assay: KinaseProfiler off-target kinase profiling; format: biochemical; details: 10 μM, ATP near Km
T11 construct: purchased Millipore, Inc. (KinaseProfiler service)
T11 sequence (Q13131 whole entry): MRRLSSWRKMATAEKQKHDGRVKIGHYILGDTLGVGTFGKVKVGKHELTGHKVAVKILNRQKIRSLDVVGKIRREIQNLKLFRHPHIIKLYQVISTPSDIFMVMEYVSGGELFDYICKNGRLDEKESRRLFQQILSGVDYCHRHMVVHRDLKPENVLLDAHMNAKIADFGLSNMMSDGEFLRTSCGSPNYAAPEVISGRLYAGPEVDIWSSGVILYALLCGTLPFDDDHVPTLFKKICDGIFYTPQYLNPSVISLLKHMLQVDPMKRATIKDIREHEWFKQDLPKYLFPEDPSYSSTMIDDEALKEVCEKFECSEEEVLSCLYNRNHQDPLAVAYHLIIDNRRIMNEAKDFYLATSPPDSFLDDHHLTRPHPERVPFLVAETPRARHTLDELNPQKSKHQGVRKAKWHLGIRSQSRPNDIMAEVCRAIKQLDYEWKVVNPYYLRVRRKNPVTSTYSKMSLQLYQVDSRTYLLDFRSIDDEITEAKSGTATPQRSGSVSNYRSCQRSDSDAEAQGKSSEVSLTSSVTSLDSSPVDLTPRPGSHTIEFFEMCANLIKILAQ
T11 sequence (Q9Y478 whole entry partner): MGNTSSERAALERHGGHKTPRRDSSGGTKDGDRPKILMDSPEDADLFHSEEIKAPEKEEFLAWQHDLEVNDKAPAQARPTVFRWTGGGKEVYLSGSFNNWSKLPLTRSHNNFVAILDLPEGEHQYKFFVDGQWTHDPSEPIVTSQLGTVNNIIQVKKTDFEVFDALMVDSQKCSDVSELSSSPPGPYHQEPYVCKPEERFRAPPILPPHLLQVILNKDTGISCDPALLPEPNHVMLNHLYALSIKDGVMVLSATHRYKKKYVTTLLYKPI
T11 sequence (P54619 whole entry partner): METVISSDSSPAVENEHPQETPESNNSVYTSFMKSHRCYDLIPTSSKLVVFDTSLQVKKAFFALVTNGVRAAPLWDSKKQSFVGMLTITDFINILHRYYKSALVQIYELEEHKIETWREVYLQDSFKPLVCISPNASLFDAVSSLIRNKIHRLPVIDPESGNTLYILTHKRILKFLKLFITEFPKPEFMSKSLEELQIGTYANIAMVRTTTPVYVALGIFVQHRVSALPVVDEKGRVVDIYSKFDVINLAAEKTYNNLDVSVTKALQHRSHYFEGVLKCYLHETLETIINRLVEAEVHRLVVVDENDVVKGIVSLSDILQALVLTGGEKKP
Procedure, shortened: as §1

[12] = target: T12, PAK4 (Homo sapiens, UniProt O96013); assay: KinaseProfiler off-target kinase profiling; format: biochemical; details: 10 μM, ATP near Km
T12 construct: purchased Millipore, Inc. (KinaseProfiler service)
Procedure, shortened: as §1

[13] = target: T13, SIK (Homo sapiens, UniProt P57059); assay: KinaseProfiler off-target kinase profiling; format: biochemical; details: 10 μM, ATP near Km
T13 construct: purchased Millipore, Inc. (KinaseProfiler service)
Procedure, shortened: as §1

[14] = target: T14, TEC Activated (Homo sapiens, UniProt P42680); assay: KinaseProfiler off-target kinase profiling; format: biochemical; details: 10 μM, ATP near Km
T14 construct: purchased Millipore, Inc. (KinaseProfiler service)
T14 sequence (P42680 whole entry): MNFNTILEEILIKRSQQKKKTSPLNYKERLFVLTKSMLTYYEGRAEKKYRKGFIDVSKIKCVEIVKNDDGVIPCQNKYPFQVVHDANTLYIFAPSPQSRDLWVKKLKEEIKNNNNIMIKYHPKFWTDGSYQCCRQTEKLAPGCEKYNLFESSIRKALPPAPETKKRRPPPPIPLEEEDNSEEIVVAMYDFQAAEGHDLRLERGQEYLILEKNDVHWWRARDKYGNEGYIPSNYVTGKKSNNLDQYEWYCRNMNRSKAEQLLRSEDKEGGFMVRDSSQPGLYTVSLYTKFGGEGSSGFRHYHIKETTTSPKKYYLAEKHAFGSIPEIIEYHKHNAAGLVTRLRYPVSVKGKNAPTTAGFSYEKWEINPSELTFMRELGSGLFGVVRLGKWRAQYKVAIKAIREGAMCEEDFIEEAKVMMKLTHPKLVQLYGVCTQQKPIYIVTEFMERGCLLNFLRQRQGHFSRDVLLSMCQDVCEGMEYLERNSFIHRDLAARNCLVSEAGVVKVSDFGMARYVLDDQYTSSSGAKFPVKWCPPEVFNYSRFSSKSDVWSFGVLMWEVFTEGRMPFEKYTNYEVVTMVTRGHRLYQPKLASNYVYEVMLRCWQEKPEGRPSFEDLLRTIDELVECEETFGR
Procedure, shortened: as §1

[15] = target: T15, JNK1alpha1 (Homo sapiens, UniProt P45983); assay: KinaseProfiler off-target kinase profiling; format: biochemical; details: 10 μM, ATP near Km
T15 construct: purchased Millipore, Inc. (KinaseProfiler service)
T15 sequence (P45983 1-384 isoform P45983-2): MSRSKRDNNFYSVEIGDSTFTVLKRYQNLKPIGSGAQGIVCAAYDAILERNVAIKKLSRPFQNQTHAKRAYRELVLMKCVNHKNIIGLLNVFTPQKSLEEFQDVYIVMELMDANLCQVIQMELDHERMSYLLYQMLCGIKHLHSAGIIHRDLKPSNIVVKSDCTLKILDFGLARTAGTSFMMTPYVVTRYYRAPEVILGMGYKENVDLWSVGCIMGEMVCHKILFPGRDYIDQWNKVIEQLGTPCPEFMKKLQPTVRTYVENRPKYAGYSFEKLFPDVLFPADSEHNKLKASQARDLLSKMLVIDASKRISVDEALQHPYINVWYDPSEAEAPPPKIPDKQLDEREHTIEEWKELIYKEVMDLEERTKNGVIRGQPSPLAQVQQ
Procedure, shortened: as §1

[16] = target: T16, EphA8 (Homo sapiens, UniProt P29322); assay: KinaseProfiler off-target kinase profiling; format: biochemical; details: 10 μM, ATP near Km
T16 construct: purchased Millipore, Inc. (KinaseProfiler service)
Procedure, shortened: as §1

[17] = target: T17, PRKG1alpha (Homo sapiens, UniProt Q13976); assay: KinaseProfiler off-target kinase profiling; format: biochemical; details: 10 μM, ATP near Km
T17 construct: purchased Millipore, Inc. (KinaseProfiler service)
Procedure, shortened: as §1

[18] = target: T18, MST1 (Homo sapiens, UniProt Q13043); assay: KinaseProfiler off-target kinase profiling; format: biochemical; details: 10 μM, ATP near Km
T18 construct: purchased Millipore, Inc. (KinaseProfiler service)
Procedure, shortened: as §1

[19] = target: T19, ErbB4 (Homo sapiens, UniProt Q15303); assay: KinaseProfiler off-target kinase profiling; format: biochemical; details: 10 μM, ATP near Km
T19 construct: purchased Millipore, Inc. (KinaseProfiler service)
T19 sequence (Q15303 26-1308): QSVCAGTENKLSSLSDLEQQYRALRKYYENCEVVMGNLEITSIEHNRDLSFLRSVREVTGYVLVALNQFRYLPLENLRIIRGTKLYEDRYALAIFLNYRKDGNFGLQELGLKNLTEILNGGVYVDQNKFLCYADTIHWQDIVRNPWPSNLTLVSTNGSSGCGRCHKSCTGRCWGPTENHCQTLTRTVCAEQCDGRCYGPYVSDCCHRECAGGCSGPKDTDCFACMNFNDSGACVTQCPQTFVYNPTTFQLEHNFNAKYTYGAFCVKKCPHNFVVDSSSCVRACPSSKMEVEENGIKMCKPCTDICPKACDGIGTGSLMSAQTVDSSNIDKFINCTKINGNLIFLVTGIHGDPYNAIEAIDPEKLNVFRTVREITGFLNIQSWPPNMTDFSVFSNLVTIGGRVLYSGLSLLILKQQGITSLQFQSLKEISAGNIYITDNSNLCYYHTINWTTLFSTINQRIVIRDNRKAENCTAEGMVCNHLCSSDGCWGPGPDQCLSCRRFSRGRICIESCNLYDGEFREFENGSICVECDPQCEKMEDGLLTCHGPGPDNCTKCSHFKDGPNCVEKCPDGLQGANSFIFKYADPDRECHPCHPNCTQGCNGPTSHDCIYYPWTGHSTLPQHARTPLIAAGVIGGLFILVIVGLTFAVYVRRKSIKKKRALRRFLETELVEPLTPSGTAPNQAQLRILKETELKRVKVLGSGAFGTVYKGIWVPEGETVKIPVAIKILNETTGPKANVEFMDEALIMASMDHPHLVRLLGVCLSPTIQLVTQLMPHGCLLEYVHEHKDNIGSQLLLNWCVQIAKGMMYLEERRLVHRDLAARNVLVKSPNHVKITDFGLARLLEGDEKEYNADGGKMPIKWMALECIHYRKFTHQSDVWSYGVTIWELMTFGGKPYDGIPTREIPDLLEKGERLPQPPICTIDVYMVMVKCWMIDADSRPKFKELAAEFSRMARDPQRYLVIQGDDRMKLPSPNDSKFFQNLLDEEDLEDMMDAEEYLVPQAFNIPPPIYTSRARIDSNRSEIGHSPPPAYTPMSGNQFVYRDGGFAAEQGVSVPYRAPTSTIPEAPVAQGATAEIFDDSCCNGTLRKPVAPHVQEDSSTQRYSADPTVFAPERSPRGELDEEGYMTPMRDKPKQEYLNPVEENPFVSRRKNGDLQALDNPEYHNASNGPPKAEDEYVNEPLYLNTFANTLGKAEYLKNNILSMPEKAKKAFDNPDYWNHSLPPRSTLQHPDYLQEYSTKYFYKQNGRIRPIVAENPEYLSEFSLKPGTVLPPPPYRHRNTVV
Procedure, shortened: as §1

[20] = target: T20, EphB4 (Homo sapiens, UniProt P54760); assay: KinaseProfiler off-target kinase profiling; format: biochemical; details: 10 μM, ATP near Km
T20 construct: purchased Millipore, Inc. (KinaseProfiler service)
Procedure, shortened: as §1

[21] = target: T21, Rsk2 (Homo sapiens, UniProt P51812); assay: KinaseProfiler off-target kinase profiling; format: biochemical; details: 10 μM, ATP near Km
T21 construct: purchased Millipore, Inc. (KinaseProfiler service)
Procedure, shortened: as §1

[22] = target: T22, CK1gamma3 (Homo sapiens, UniProt Q9Y6M4); assay: KinaseProfiler off-target kinase profiling; format: biochemical; details: 10 μM, ATP near Km
T22 construct: purchased Millipore, Inc. (KinaseProfiler service)
Procedure, shortened: as §1

[23] = target: T23, TrkA (Homo sapiens, UniProt P04629); assay: TrkA LanthaScreen Eu Kinase Binding Assay; set-up: 6HIS tagged cytoplasmic domain from Invitrogen, Cat. No. PV3144; purchased Invitrogen PV3144; details: averaged IC50 values, read-out: TrkA Enzyme IC50
Method: TrkA binding activity was determined in a TrkA LanthaScreen™ Eu Kinase Binding Assay. 5 nM His-tagged recombinant human TrkA (6HIS tagged cytoplasmic domain from Invitrogen, Cat. No. PV3144) was incubated with 4 nM Alexa-Fluor® Tracer 236 (Invitrogen Cat. No. PV5592), 2 nM biotinylated anti-His (Invitrogen Cat. No. PV6090), and 2 nM europium-labeled Streptavidin (Invitrogen Cat. No. PV5899), in buffer (25 mM MOPS, pH 7.5, 5 mM MgCl2, 0.005% Triton X-100). Three fold serial dilutions of compounds of the invention in DMSO were added to a final percentage of 2% DMSO. After 60-minute incubation at 22° C., the reaction was measured using the EnVision mutlimode plate reader (PerkinElmer) via TR-FRET dual wavelength detection at […]. The percent of control was calculated using a ratiometric emission factor. The IC50 values were determined by fitting a four parameter model to the percent of control data.
Table A provides averaged IC50 values for compounds of the invention when tested in the assay of Example A, where A represents an averaged IC50 value <100 nM; and B represents an averaged IC50 value from 100 to 1,000 nM.
Target sequence in this assay (P04629 440-796 limits assumed): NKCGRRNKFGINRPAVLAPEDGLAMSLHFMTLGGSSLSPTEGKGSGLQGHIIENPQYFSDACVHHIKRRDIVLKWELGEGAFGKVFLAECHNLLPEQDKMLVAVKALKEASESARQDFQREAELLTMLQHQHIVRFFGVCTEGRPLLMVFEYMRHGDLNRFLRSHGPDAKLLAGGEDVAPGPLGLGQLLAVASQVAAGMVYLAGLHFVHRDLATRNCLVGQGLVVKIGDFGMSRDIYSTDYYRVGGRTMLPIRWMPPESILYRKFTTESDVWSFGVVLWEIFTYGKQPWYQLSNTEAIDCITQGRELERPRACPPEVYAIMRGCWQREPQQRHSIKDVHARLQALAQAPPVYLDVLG

[24] = target: T23, TrkA; assay: KinaseProfiler off-target kinase profiling; format: biochemical; set-up: purchased Millipore, Inc. (KinaseProfiler service); details: 10 μM, ATP near Km
Method: A representative compound of the invention (Example 48) was tested for off-target kinase activity at a concentration of 10 μM by Millipore, Inc. in their KinaseProfiler™ service against all the kinases available in their full kinase panel. The compound was run in duplicate at a concentration of ATP near the Km for each individual kinase according to Millipore's specifications. The results are shown in Table B. Data are reported as percent of control (POC) and are the average of the two replicates.

COCCN1C[C@@H](NC(=O)Nc2sc(C(C)C)nc2-c2ccccc2)[C@H](c2ccccc2)C1 [Example 48, 1-(2-isopropyl-4-phenylthiazol-5-yl)-3-((3S,4R)-1-(2-methoxyethyl)-4-phenylpyrrolidin-3-yl)urea]
Avg POC [1]: 85.5% of control
Avg POC [2]: 101% of control
Avg POC [3]: 108.5% of control
Avg POC [4]: 106% of control
Avg POC [5]: 112.5% of control
Avg POC [6]: 94.5% of control
Avg POC [7]: 93% of control
Avg POC [8]: 115.5% of control
Avg POC [9]: 97.5% of control
Avg POC [10]: 82% of control
Avg POC [11]: 114.5% of control
Avg POC [12]: 134.5% of control
Avg POC [13]: 111% of control
Avg POC [14]: 94% of control
Avg POC [15]: 106.5% of control
Avg POC [16]: 122.5% of control
Avg POC [17]: 106% of control
Avg POC [18]: 93.5% of control
Avg POC [19]: 97% of control
Avg POC [20]: 99% of control
Avg POC [21]: 134% of control
Avg POC [22]: 110% of control
IC50 [23]: < 100 nM
Avg POC [24]: 2.5% of control
